Eleven molecules from patent publication US9121022B2, “Method for controlling herbicide-resistant plants” (priority 2010, dated 2015) can be followed below.

Entries after “also recorded” stand apart in the source; their conditions may differ. d = 2'-deoxy (DNA); r = 2'-OH (RNA)

Data set [1] has as its system Nicotiana benthamiana phytoene desaturase. Kind of data set: topical PDS oligonucleotides/polynucleotides on tobacco, bleaching and chlorophyll (Example 10). In kind it is in vivo. The note with it: for Chlorophyll (day 7) / Chlorophyll (day 12): 6 spots on the apical area, lower values indicate suppression of phytoene desaturase; for systemic regulation (suppression) of the target phytoene desaturase gene: conclusion from Table 4; for Bleaching (day 5): day 5 after treatment. The source says:
The target gene used was a Nicotiana benthamiana phytoene desaturase (SEQ ID NO:2), shown in FIG. 10; the segment consisting of nucleotides 421-1120 of SEQ ID NO:2 (underlined text in FIG. 10) was used to design a 700-mer dsRNA polynucleotide (“PDS 700-mer”) and the segment consisting of nucleotides 914-1113 of SEQ ID NO:2 (bolded underlined text in FIG. 10) was used to design a 200-mer dsRNA polynucleotide (“PDS 200-mer”). FIG. 11 schematically depicts the location of the sequences of these oligonucleotides and polynucleotides in relation to the […] (SEQ ID NO:2) sequence. Non-plant sequences obtained from corn rootworm (“CRW”), SEQ ID NOs:27, 28, 29, and 30 were used as non-homologous controls. Some of the polynucleotides included a T7 promoter sequence (indicated by lower-case text in Table 3) that is a promoter recognized by a bacteriophage T7 RNA polymerase.
The following procedure was used for all assays described in this example. Four-week old Nicotiana benthamiana plants were used in all assays. Plants were treated with 0.1% SILWET L-77® brand surfactant solution freshly made with ddH2O. Two fully expanded leaves per plant (one cotyledon, one true leaf) were dipped into the SILWET L-77® brand surfactant solution for a few seconds, and allowed to dry for 15-30 minutes before application of the polynucleotide composition. Final concentration for each oligonucleotide or polynucleotide was 25 microM (in 0.01% SILWET L-77® brand surfactant, 5 mM sodium phosphate buffer, pH 6.8) unless otherwise stated. 20 microliters of the solution was applied to the top surface of each of the two pre-treated leaves to provide a total of 40 microliters (1 nmol oligonucleotide or polynucleotide) for each plant. Leaf bleaching was observed 3 days post treatment.
FIG. 13 illustrates phenotypes observed at day 12 after treatment in another assay of the effect from twelve combinations of polynucleotides or oligonucleotides (see Table 4). Table 4 also lists observations of visible bleaching of the plants at day 5 after treatment and the results of chlorophyll measurements taken at days 7 and 12 after treatment. Chlorophyll measurements are an indication of suppression of the target gene phytoene desaturase, and measurements were taken at 6 spots on the apical area, focussing on visibly bleached leaves or (in plants without visible bleaching) on leaves in equivalent locations on the plants; lower chlorophyll measurement values indicate suppression of phytoene desaturase.

Data set [2] deals with Palmer amaranth (EPSPS copy numbers 16 to 112). Kind of data set: combinations of EPSPS, TIF and ddATPase polynucleotides with glyphosate, protocols of Table 12 (Example 26, Table 13). In kind it is in vivo, Palmer amaranth (Amaranthus palmeri). The method, then:
The polynucleotides listed in Table 11 were produced by synthesis or by in vitro transcription.
Solutions of the polynucleotides were prepared and applied to the leaves of Palmer amaranth using the protocols described in Table 12.

The test system of data set [3] is Palmer amaranth phytoene desaturase (PDS). Kind of data set: sequence specificity of PDS dsRNA on Palmer amaranth, leaf bleaching (Example 11). Format: in vivo. The text has this: Palmer amaranth phytoene desaturase (PDS) has the sequence […] […] […] […] […] […] […] […] […] […] […] […] […] […] […] […] […] […] […] […] […] […] […] […] (SEQ ID NO:37). A 678 base pair dsRNA polynucleotide with an anti-sense strand capable of hybridizing to the RNA encoded by the nucleotides at positions 317-994 (shown as underlined text) in SEQ ID NO:37 and a 198 base pair dsRNA polynucleotide with an anti-sense strand capable of hybridizing to the RNA encoded by the nucleotides at positions 797-994 (shown as italicized and underlined text) in SEQ ID NO:37 were synthesized.
Nicotiana benthamiana phytoene desaturase has the sequence […] […] […] […] […] […] […] […] […] […] […] […] […] […] […] […] […] […] […] […] […] […] […] […] […] […] (SEQ ID NO:38). A 685 base pair dsRNA polynucleotide with an anti-sense strand capable of hybridizing to the RNA encoded by the nucleotides at positions 421-1105 (shown as underlined text) in SEQ ID NO:38 and a 192 base pair dsRNA polynucleotide with an anti-sense strand capable of hybridizing to the RNA encoded by the nucleotides at positions 914-1105 (shown as italicized and underlined text) in SEQ ID NO:38 were synthesized.
Palmer amaranth plants having 16 copies of EPSPS and 5-8 inches high were treated with 0.1% SILWET L-77® brand surfactant solution freshly made with ddH2O. Four fully expanded leaves per plant were dipped into the SILWET L-77® brand surfactant solution for a few seconds, and allowed to dry for 30 minutes to 1 hour before application of the polynucleotide composition. Individual polynucleotide solutions were made for each of the 678 bp Palmer PDS dsRNA, 198 bp Palmer PDS dsRNA, the 685 bp Nicotiana benthamiana PDS dsRNA, and the 192 bp Nicotiana benthamiana PDS dsRNA (0.6 micromolar polynucleotide in 0.01% SILWET L-77® brand surfactant, 5 mM sodium phosphate buffer, pH 6.8). 10 microliters of polynucleotide solution (or buffer as a control) was applied to the top surface of each of the four pre-treated leaves per plant to provide a total of 40 microliters for each plant. Plants were kept in a growth chamber, and leaf bleaching was observed 3 days post treatment.

The mark [4] stands for this setting: Protocol 3, 29 g/acre, copy number 16, 13 DAT.

On to “6 (sense ATCCATGATATCGTGAACATC; antisense GCAAAGAAAAATGCGTCG; DNA, backbone not given here) [compound 6]”, for which, in data set [1], the “Chlorophyll (day 7)” value was found to be 34.2, the “Chlorophyll (day 12)” value amounted to 38.2, the “systemic regulation (suppression) of the target phytoene desaturase gene” value (“systemic regulation (suppression)” below) is recorded as “did not suppress” and the “Bleaching (day 5)” value is listed as “not yet”.

With “7 (sense 1 GCAAGAGATGTCCTAGGTGGG; sense 2 ACAGATTTCTTCAGGAGAAACATGG; DNA, backbone not given here) [compound 7]”, in data set [1], the “Chlorophyll (day 7)” value is given as 32.0, the “Chlorophyll (day 12)” value is 41.1, the “systemic regulation (suppression)” value is “did not suppress” and the “Bleaching (day 5)” value is recorded as “not yet”.

Consider “8 (antisense 1 CATCTCCTTTAATTGTACTGCC; antisense 2 TTTAATTGTACTGCCATTATTC; DNA, backbone not given here) [compound 8]”, for which, in data set [1], the “Chlorophyll (day 7)” value is 11.3, the “Chlorophyll (day 12)” value worked out at 3.2, the “systemic regulation (suppression)” value was “effective” and the “Bleaching (day 5)” value is “strong”.

With “IDT [1]: Palmer/EPSPS dsRNA, SEQ ID NO. 83, 84; 25-mer sense with two 3′ deoxyribonucleotides, 27-mer anti-sense (sense CUACCAUCAACAAUGGUGUCCAUAC; antisense GUAUGGACACCAUUGUUGAUGGUAGUA; sense: sugars from the 5' end r23 d2, backbone not given here; antisense: RNA, backbone not given here)”, in data set [2] (setting [4]), the “Results: stunted” value came out at 51% stunted.

With “IDT [2]: Palmer/EPSPS dsRNA, SEQ ID NO. 85, 86 (chain 1 AGUUGGUGGGCAAUCAUCAAUUGTT; chain 2 AACAAUUGAUGAUUGCCCACCAACUCU; chain 1: sugars from the 5' end r23 d2, backbone not given here; chain 2: RNA, backbone not given here)”, the “Results: control” value in data set [2] (setting [4]) was found to be 0% control.

In the case of “IDT [3]: Palmer/EPSPS dsRNA, SEQ ID NO. 87, 88 (chain 1 GGUCGACAACUUGCUGUAUAGUGAT; chain 2 AUCACUAUACAGCAAGUUGUCGACCUC; chain 1: sugars from the 5' end r23 d2, backbone not given here; chain 2: RNA, backbone not given here)”, in data set [2] (setting [4]), the “Results: stunted” value was 51% stunted.

Turning to “IDT [5]: Palmer/EPSPS dsRNA (21-mer) with blunt ends, SEQ ID NO. 91, 92 (chain 1 AACAUGAACAAAAUGCCAGAU; chain 2 AUCUGGCAUUUUGUUCAUGUU; RNA, backbone not given here)”, in data set [2] (Protocol 1, 0.29 g/acre, copy number 33, 54, 55, 18 DAT), the “Results: stunted” value is on record as 71%. The “Results: killed” value in data set [2] (Protocol 1, 2.9 g/acre each, copy number 34, 36, 54, 22 DAT) was found to be 100% kill; in data set [2] (Protocol 1, 2.9 g/acre, copy number 33, 54, 55, 18 DAT), 100% killed.

Consider “Treatment 8: SEQ ID NO: 22, 23; anti-sense 22-mer oligos without T7 promoter (antisense 1 CATCTCCTTTAATTGTACTGCC; antisense 2 TTTAATTGTACTGCCATTATTC; listed as DNA, chemistry not given here)”, for which the “bleaching of apical leaves (FIG. 15)” value in data set [1] (another assay, listed as PDS anti-sense) is recorded as “strong bleaching; also recorded: apical leaf bleaching observed”.

B1: 9 (nucleic acid)
chain 1: GCAAGAGATGTCCTAGGTGGG
chain 2: ACAGATTTCTTCAGGAGAAACATGG
chain 3: CATCTCCTTTAATTGTACTGCC
chain 4: TTTAATTGTACTGCCATTATTC
chain 5: CACTTCCATCCTCATTCAGCTCGAT
chain 6: ACACCTCATCTGTCACCCTATCAG
chain 7: CAGTCTCGTACCAATCTCCATCAT
modifications: DNA, backbone not given here
In the case of B1, in data set [1], the “Chlorophyll (day 7)” value was determined as 30.2, the “Chlorophyll (day 12)” value came out at 34.4 and the “Bleaching (day 5)” value was “not yet”.

B2: Treatment 10: dsRNA corresponding to nucleotides 914-1113 of SEQ ID NO:2 (nucleic acid, listed as Nicotiana benthamiana)
chain: ACAGATTTCTTCAGGAGAAACATGGTTCAAAAATGGCCTTTTTAGATGGTAACCCTCCTGAGAGACTTTGCATGCCGATTGTGGAACATATTGAGTCAAAAGGTGGCCAAGTCAGACTAAACTCACGAATAAAAAAGATCGAGCTGAATGAGGATGGAAGTGTCAAATGTTTTATACTGAATAATGGCAGTACAATTAAA
modifications: double-stranded RNA
Take B2: the “bleaching of apical leaves (FIG. 12A)” value in data set [1] (200-mer dsRNA at 0.6 microM, oligonucleotides 25 microM each) is given as “Bleaching of apical leaves was observed”. The “systemic regulation (suppression)” value in data set [1] was “also effective”.

B3: 678 bp Palmer PDS dsRNA: dsRNA to positions 317-994 of Palmer amaranth PDS (SEQ ID NO:37) (nucleic acid, listed as Amaranthus palmeri)
sense: TAGGAGGAAAGGTTGCAGCGTGGAAGGATGAGGATGGTGACTGGTATGAGACTGGGCTACATATATTCTTTGGGGCATATCCAAATGTCCAAAATCTATTTGGAGAACTTGGTATAAATGACCGACTGCAATGGAAGGAGCACTCTATGATTTTTGCAATGCCCAGCAAGCCCGGTGAATTCAGTCGCTTTGATTTTCCCGAAATCCTGCCTGCACCATTAAATGGCATATGGGCAATCCTAAGAAATAATGAAATGCTAACCTGGCCAGAAAAAATCAAGTTTGCCATTGGCTTGTTGCCTGCTATGGCAGGCGGACAGTCATATGTTGAAGCACAAGATGGTTTGAGTGTCCAAGAGTGGATGAGAAAACAAGGAGTACCCGATCGTGTAACTGATGATGTGTTTATTGCCATGTCAAAGGCACTGAACTTCATAAATCCCGATGAACTTTCAATGCAGTGCATCTTGATTGCTCTGAACCGATTCCTGCAGGAGAAACATGGTTCTAAGATGGCCTTCCTAGACGGAAACCCTCCAGAGAGGCTGTGCATGCCTATTGTTAAACACATCGAGTCACTAGGTGGTGAAGTTAAACTTAACTCTCGTATACAAAAGATTCAGTTGGACCAGAGTGGAAGCGTGAAGAGTTTTTTGCTAAATAACGGGAGGGAAATAC
modifications: complementary strand
For B3, the bleaching of leaves result in data set [3] (0.6 micromolar, 40 microliters per plant, 3 days post treatment) is “showed bleaching of leaves”. Also, the “bleaching of leaves (FIG. 17)” value in data set [3] (separate assay) is “apical leaf bleaching observed”.
